Results: patent US20230295164A1, “COMPOUNDS HAVING ANTIBACTERIAL ACTIVITY” (The Trustees of Princeton University, priority 2020, published 2023)
Converted amounts (≈) assume the structure as drawn.

Experiments:
Assay in all cases: MIC testing, broth microdilution in CAMHB
Assay type in all cases: cell-based
[1] = test system: Salmonella typhimurium, CMCC 50115; conditions: 37° C., 18-20 hr, lowest concentration that completely inhibits visible growth; for MIC: Salmonella enterica, read-out: Compound MICs, Salmonella typhimurium, CMCC 50115
Method: (§1) Compounds 1-71 were subsequently tested to determine MICs of the compounds relative to the following five species/strains of bacteria: Staphylococcus aureus, NRS384; Enterococcus faecalis, ATCC 51575; Salmonella typhimurium, CMCC 50115; Escherichia coli, ATCC BAA-198; and Acinetobacter baumannii, ATCC 17978. MIC testing of compounds was conducted according to the following protocol.
(§2) For each strain to be tested, made fresh streaks onto CAMHA from −80° C. glycerol stocks.
(§3) • CAMHB: Dissolved 22 g of the powder per 1 L of purified water. Mixed well. Autoclaved at 121° C. for 10 minutes. Stored at room temperature (RT) for no more than 1 week. • Saline: Dissolved 9 g of the powder per 1 L of purified water. Mixed well. Autoclaved at 121° C. for 30 minutes. Stored at room temperature (RT) for no more than 1 week.
(§4) Prepared the stock solutions of the tested compounds.
(§5) For compounds: • a) Dispensed 20 ul compound to the wells in column 1, and 20 ul DMSO to the wells in column 2 to 12; • b) Diluted the compounds by transferring 10 ul compounds from column 1 to 20 ul DMSO in column 2; mix with pipette. • c) Repeated until column 11 to get 3×serial dilutions. Column 12 was the DMSO control.
(§6) A multichannel pipette was used to deliver 1 μl of the diluted compound into each well of the corresponding daughter plate.
(§7) Scraped 4-8 single colonies from an agar plate into 5 ml saline in a 14 ml Falcon conical tube. Vortexed the tube to suspend the bacteria. Adjusted the turbidity to ˜0.2 (corresponding to 0.5 McFarland) with an Ultrospec 10 Cell density meter.
(§8) The strain suspension was diluted 200-fold in CAMHB medium and dispense into a sterile reservoir. A multichannel pipette was then used to deliver 99 μl of the diluted inocula into each well of the corresponding daughter plate.
(§9) Incubate the daughter plates at 37° C., 85% humidity for 18-20 hr.
(§10) A magnifying mirror device was used for ease of scoring the presence or absence of growth in the wells. 96-well micro-plates were photographed.

[2] = test system: Escherichia coli, ATCC BAA-198; conditions: 18-20 hr, lowest concentration that completely inhibits visible growth; for MIC: Escherichia coli, ATCCBAA198, 37° C., read-out: Compound MICs, Escherichia coli, ATCC BAA-198; for Compound MICs, Escherichia coli, ATCC BAA-198: 37° C.
Method: as §1, §2, §3, §4, §5, §6, §7, §8, §9, §10

[3] = test system: Acinetobacter baumannii, ATCC 17978; conditions: 18-20 hr, lowest concentration that completely inhibits visible growth; for MIC: Acinetobacter baumannii, ATCC17978, 37° C., read-out: Compound MICs, Acinetobacter baumannii, ATCC 17978; for Compound MICs, Acinetobacter baumannii, ATCC 17978: 37° C.
Method: as §1, §2, §3, §4, §5, §6, §7, §8, §9, §10

[4] = test system: Staphylococcus aureus, NRS384; conditions: 18-20 hr, lowest concentration that completely inhibits visible growth; for MIC: Staphylococcus aureus, NRS384, 37° C., read-out: Compound MICs, Staphylococcus aureus, NRS384; for Compound MICs, Staphylococcus aureus, NRS384: 37° C.
Method: as §1, §2, §3, §4, §5, §6, §7, §8, §9, §10

[5] = test system: Enterococcus faecalis, ATCC 51575; conditions: 18-20 hr, lowest concentration that completely inhibits visible growth; for MIC: Enterococcus faecalis, ATCC51575, 37° C., read-out: Compound MICs, Enterococcus faecalis, ATCC 51575; for Compound MICs, Enterococcus faecalis, ATCC 51575: 37° C.
Method: as §1, §2, §3, §4, §5, §6, §7, §8, §9, §10

Compound	MIC [1]	MIC [2]	MIC [3]	MIC [4]	MIC [5]	Compound MICs, Salmonella typhimurium, CMCC 50115 [1]	Compound MICs, Escherichia coli, ATCC BAA-198 [2]	Compound MICs, Acinetobacter baumannii, ATCC 17978 [3]	Compound MICs, Staphylococcus aureus, NRS384 [4]	Compound MICs, Enterococcus faecalis, ATCC 51575 [5]
C#Cc1ccc(Cn2ccc3c4c(N)nc(N)nc4ccc32)cc1 [Compound 1]	0.088 µg/mL (≈ 0.281 µM)	2.37 µg/mL (≈ 7.56 µM)	2.37 µg/mL (≈ 7.56 µM)	0.088 µg/mL (≈ 0.281 µM)	0.01 µg/mL (≈ 0.0319 µM)					
Nc1nc(NCCO)c2c(ccc3c2ccn3Cc2ccc(-c3ccccc3)cc2)n1 [Compound 2]	> 64 µg/mL	64 µg/mL (≈ 156 µM)	7.11 µg/mL (≈ 17.4 µM)	2.37 µg/mL (≈ 5.79 µM)	2.37 µg/mL (≈ 5.79 µM)					
Nc1nc(N)c2c(ccc3c2ccn3CC#Cc2ccccc2)n1 [Compound 3]	0.79 µg/mL (≈ 2.52 µM)	7.11 µg/mL (≈ 22.7 µM)	7.11 µg/mL (≈ 22.7 µM)	0.26 µg/mL (≈ 0.83 µM)	0.03 µg/mL (≈ 0.0957 µM)					
Nc1nc(N)c2c(ccc3c2ccn3C/C=C/c2ccccc2)n1 [Compound 4]	0.79 µg/mL (≈ 2.5 µM)	7.11 µg/mL (≈ 22.5 µM)	7.11 µg/mL (≈ 22.5 µM)	0.03 µg/mL (≈ 0.0951 µM)	0.03 µg/mL (≈ 0.0951 µM)					
Nc1nc(N)c2c(ccc3c2ccn3Cc2cccc(Oc3ccccc3)c2)n1 [Compound 5]	0.79 µg/mL (≈ 2.07 µM)	7.11 µg/mL (≈ 18.6 µM)	7.11 µg/mL (≈ 18.6 µM)	0.26 µg/mL (≈ 0.682 µM)	0.03 µg/mL (≈ 0.0786 µM)					
CC(C)c1ccc(Cn2ccc3c4c(N)nc(N)nc4ccc32)cc1 [Compound 8]	0.26 µg/mL (≈ 0.784 µM)	2.37 µg/mL (≈ 7.15 µM)	0.79 µg/mL (≈ 2.38 µM)	0.088 µg/mL (≈ 0.266 µM)	0.03 µg/mL (≈ 0.0905 µM)					
C#Cc1ccc(Cn2ccc3c4c(N)nc(NC5CC5)nc4ccc32)cc1 [Compound 9]	2.37 µg/mL (≈ 6.71 µM)	21.3 µg/mL (≈ 60.3 µM)	21.3 µg/mL (≈ 60.3 µM)	0.79 µg/mL (≈ 2.24 µM)	0.26 µg/mL (≈ 0.736 µM)					
Nc1nc(N)c2c(ccc3c2ccn3CC2CCCC2)n1 [Compound 11]	0.79 µg/mL (≈ 2.81 µM)	21.3 µg/mL (≈ 75.7 µM)	7.11 µg/mL (≈ 25.3 µM)	0.088 µg/mL (≈ 0.313 µM)	0.03 µg/mL (≈ 0.107 µM)					
Nc1nc(N)c2c(ccc3c2ccn3Cc2cccc(F)c2)n1 [Compound 12]	0.79 µg/mL (≈ 2.57 µM)	7.11 µg/mL (≈ 23.1 µM)	2.37 µg/mL (≈ 7.71 µM)	0.26 µg/mL (≈ 0.846 µM)	0.03 µg/mL (≈ 0.0976 µM)					
Nc1nc(N)c2c(ccc3c2ccn3Cc2ccc(F)c(F)c2)n1 [Compound 13]	0.088 µg/mL (≈ 0.271 µM)	7.11 µg/mL (≈ 21.9 µM)	2.37 µg/mL (≈ 7.29 µM)	0.088 µg/mL (≈ 0.271 µM)	0.01 µg/mL (≈ 0.0307 µM)					
CC(C)C#Cc1ccc(Cn2ccc3c4c(N)nc(N)nc4ccc32)cc1 [Compound 15]						2.37 µg/mL	7.11 µg/mL	21.3 µg/mL	0.26 µg/mL	0.09 µg/mL
CC(C)(C)OC(=O)NCC#Cc1ccc(Cn2ccc3c4c(N)nc(N)nc4ccc32)cc1 [Compound 16]						21.3 µg/mL	>64 µg/mL	>64 µg/mL	0.79 µg/mL	0.09 µg/mL
CC(C)C#Cc1ccc(Cn2ccc3c4c(N)nc(NC5CC5)nc4ccc32)cc1 [Compound 17]						7.11 µg/mL	21.3 µg/mL	21.3 µg/mL	2.37 µg/mL	0.79 µg/mL
CC#Cc1ccc(Cn2ccc3c4c(N)nc(NC5CC5)nc4ccc32)cc1 [Compound 18]						7.11 µg/mL	21.3 µg/mL	21.3 µg/mL	2.37 µg/mL	0.79 µg/mL
Nc1nc(NC2CC2)nc2ccc3c(ccn3Cc3ccc(C#Cc4ccccc4)cc3)c12 [Compound 19]						21.3 µg/mL	>64 µg/mL	>64 µg/mL	2.37 µg/mL	0.79 µg/mL
Nc1nc(NC2CC2)nc2ccc3c(ccn3Cc3ccc(C#CC4CC4)cc3)c12 [Compound 20]						21.3 µg/mL	>64 µg/mL	64 µg/mL	2.37 µg/mL	0.79 µg/mL
Nc1nc(N)c2c(ccc3c2ccn3Cc2ccc(C#Cc3ccccc3)cc2)n1 [Compound 23]						>64 µg/mL	>64 µg/mL	>64 µg/mL	2.37 µg/mL	0.26 µg/mL
NCC#Cc1ccc(Cn2ccc3c4c(N)nc(N)nc4ccc32)cc1 [Compound 24]						0.26 µg/mL	7.11 µg/mL	64 µg/mL	0.79 µg/mL	0.26 µg/mL
CC#Cc1ccc(Cn2ccc3c4c(N)nc(N)nc4ccc32)cc1 [Compound 25]						0.79 µg/mL	7.11 µg/mL	21.3 µg/mL	0.26 µg/mL	0.09 µg/mL
Nc1nc(N)c2c(ccc3c2ccn3Cc2ccc3ccccc3c2)n1 [Compound 26]						0.26 µg/mL	2.37 µg/mL	2.37 µg/mL	0.09 µg/mL	0.09 µg/mL
CC[Si](C#Cc1ccc(CNc2nc(N)nc3ccc4c(ccn4Cc4ccc(C#C[Si](CC)(CC)CC)cc4)c23)cc1)(CC)CC [Compound 27]						>64 µg/mL	>64 µg/mL	>64 µg/mL	>64 µg/mL	>64 µg/mL
CCc1ccc(Cn2ccc3c4c(N)nc(N)nc4ccc32)cc1 [Compound 31]						0.79 µg/mL	7.11 µg/mL	7.11 µg/mL	0.26 µg/mL	0.09 µg/mL
